From patent publication US20250296959A1, “B7-H3 TARGETING PEPTIDES AND CONSTRUCTS THEREOF” (Mariana Oncology Inc., priority 2024, published 2025)
Starred links: 1 amine or outer side, 2 acyl side, 3 side chain; linkers in the order of their positions; H or OH if unused. Positions of bridges follow the written chain, without caps; N, C: chain ends. Non-standard residues stand in square brackets, D forms with d. Residues, ends and D or L forms follow the SMILES beside them. *: point of attachment. Ala(piperidin-4-yl) = O=C([C@H](CC1CCN([*:3])CC1)N[*:1])[*:2]; DOTA = O=C(O)CN1CCN(CC(=O)O)CCN(CC(=O)*)CCN(CC(=O)O)CC1; Phe(4-COOH) = N[C@@H](Cc1ccc(C(=O)O)cc1)C(=O)O; Trp(5-F) = N[C@@H](Cc1c[nH]c2ccc(F)cc12)C(=O)O; Trp(7-aza) = N[C@@H](Cc1c[nH]c2ncccc12)C(=O)O; Tyr(3-F) = N[C@@H](Cc1ccc(O)c(F)c1)C(=O)O; 2Nal = N[C@@H](Cc1ccc2ccccc2c1)C(=O)O; Phe(2-F) = N[C@@H](Cc1ccccc1F)C(=O)O; Phe(2-Me) = Cc1ccccc1C[C@H](N)C(=O)O; Hyp = O=C(O)[C@@H]1C[C@@H](O)CN1; 4Pal = N[C@@H](Cc1ccncc1)C(=O)O; Chg = N[C@H](C(=O)O)C1CCCCC1; Tle = CC(C)(C)[C@H](N)C(=O)O; hLeu = CC(C)CC[C@H](N)C(=O)O

Biological target: T1, human 4lg B7-H3 (Homo sapiens, UniProt Q5ZPR3)
T1 sequence (Q5ZPR3 29-534): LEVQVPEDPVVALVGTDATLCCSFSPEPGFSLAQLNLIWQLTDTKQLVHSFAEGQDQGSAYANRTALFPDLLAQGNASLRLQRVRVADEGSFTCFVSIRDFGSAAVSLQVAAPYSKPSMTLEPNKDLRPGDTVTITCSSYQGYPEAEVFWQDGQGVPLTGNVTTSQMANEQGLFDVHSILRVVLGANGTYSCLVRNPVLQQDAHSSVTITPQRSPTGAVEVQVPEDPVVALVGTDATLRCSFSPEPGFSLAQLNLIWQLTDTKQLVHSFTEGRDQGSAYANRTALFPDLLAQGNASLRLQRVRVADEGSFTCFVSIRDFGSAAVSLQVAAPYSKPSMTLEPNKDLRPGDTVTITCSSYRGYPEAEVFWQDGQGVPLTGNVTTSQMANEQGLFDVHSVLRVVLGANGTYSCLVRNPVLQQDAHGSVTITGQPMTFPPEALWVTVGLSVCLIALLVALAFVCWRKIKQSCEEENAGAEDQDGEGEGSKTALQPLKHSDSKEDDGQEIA
Experiment: Affinity determination by surface plasmon resonance (SPR) to 4Ig B7-H3
Conditions: SPR KD—25° C., 4Ig B7-H3; 25° C. flow cell temperature

Kd [nM] | SMILES
1 to 10 | CC(=O)N[C@@H](CCC(C)C)C(=O)N[C@@H](Cc1ccc(O)cc1)C(=O)N[C@H]1CSSC[C@@H](C(=O)N[C@@H](Cc2c[nH]c3ccccc23)C(=O)N[C@@H](Cc2ccccc2)C(=O)N[C@H](C(=O)N[C@H](CCCCNC(=O)CN2CCN(CC(=O)O)CCN(CC(=O)O)CCN(CC(=O)O)CC2)C(N)=O)[C@@H](C)O)NC(=O)[C@H](Cc2ccc(O)c(F)c2)NC(=O)[C@H](C(C)C)NC(=O)[C@H](CC(=O)O)NC(=O)[C@H](Cc2ccc(O)cc2)NC(=O)[C@H](CCCCN)NC(=O)CNC(=O)[C@H](C(C)C)NC1=O [compound 151, Ac-hLeu-Y-C-V-G-K-Y-D-V-3FY-C-W-F-Thr-dLys(DOTA)-CONH2] (Ac-[hLeu]YCVGKYDV[Tyr(3-F)]CWFT[dK](DOTA)-NH2; disulfide 3-11)
< 1 | CC(=O)N[C@@H](CCC(C)C)C(=O)N[C@@H](Cc1ccc(O)cc1)C(=O)N[C@H]1CSSC[C@@H](C(=O)N[C@@H](Cc2c[nH]c3ccccc23)C(=O)N[C@@H](Cc2ccccc2)C(=O)N[C@H](C(=O)N[C@H](CCCCNC(=O)CN2CCN(CC(=O)O)CCN(CC(=O)O)CCN(CC(=O)O)CC2)C(N)=O)[C@@H](C)O)NC(=O)[C@H](Cc2ccc(O)cc2)NC(=O)[C@H](C2CCCCC2)NC(=O)[C@H](CC(=O)O)NC(=O)[C@H](Cc2ccncc2)NC(=O)[C@H](CCCCN)NC(=O)CNC(=O)[C@H](C(C)(C)C)NC1=O [compound 152, Ac-hLeu-Y-C-Tbg-G-K-4PyA-D-ChG-Y-C-W-F-Thr-dLys(DOTA)-CONH2] (Ac-[hLeu]YC[Tle]GK[4Pal]D[Chg]YCWFT[dK](DOTA)-NH2; disulfide 3-11)
< 1 | CC(=O)N[C@@H](CCC(C)C)C(=O)N[C@@H](Cc1ccc(O)cc1)C(=O)N[C@H]1CSSC[C@@H](C(=O)N[C@@H](Cc2c[nH]c3ccccc23)C(=O)N[C@@H](Cc2ccccc2)C(=O)N[C@H](C(=O)N[C@H](CCCCNC(=O)CN2CCN(CC(=O)O)CCN(CC(=O)O)CCN(CC(=O)O)CC2)C(N)=O)[C@@H](C)O)NC(=O)[C@H](Cc2ccc(O)cc2)NC(=O)[C@H](C2CCCCC2)NC(=O)[C@H](CC(=O)O)NC(=O)[C@H](Cc2ccncc2)NC(=O)[C@H](CCCCN)NC(=O)CNC(=O)[C@H](C(C)C)NC1=O [compound 153, Ac-hLeu-Y-C-V-G-K-4PyA-D-ChG-Y-C-W-F-Thr-dLys(DOTA)-CONH2] (Ac-[hLeu]YCVGK[4Pal]D[Chg]YCWFT[dK](DOTA)-NH2; disulfide 3-11)
< 1 | CC(=O)N[C@@H](CCC(C)C)C(=O)N[C@@H](Cc1ccc(O)cc1)C(=O)N[C@H]1CSSC[C@@H](C(=O)N[C@@H](Cc2c[nH]c3ccccc23)C(=O)N[C@@H](Cc2ccccc2)C(=O)N[C@H](C(=O)N[C@H](CCCCNC(=O)CN2CCN(CC(=O)O)CCN(CC(=O)O)CCN(CC(=O)O)CC2)C(N)=O)[C@@H](C)O)NC(=O)[C@H](Cc2ccc(O)cc2)NC(=O)[C@H](C(C)C)NC(=O)[C@H](CC(=O)O)NC(=O)[C@H](Cc2ccc(O)cc2)NC(=O)[C@H](CC2CCNCC2)NC(=O)CNC(=O)[C@H](C(C)C)NC1=O [compound 154, Ac-hLeu-Y-C-V-G-PipAla-Y-D-V-Y-C-W-F-Thr-dLys(DOTA)-CONH2] (Ac-[hLeu]YCVG[Ala(piperidin-4-yl)]YDVYCWFT[dK](DOTA)-NH2; disulfide 3-11)
< 1 | CC(=O)N[C@@H](CCC(C)C)C(=O)N[C@@H](Cc1ccc(O)cc1)C(=O)N[C@H]1CSSC[C@@H](C(=O)N[C@@H](Cc2c[nH]c3ccccc23)C(=O)N[C@@H](Cc2ccccc2)C(=O)N[C@H](C(=O)N[C@H](CCCCNC(=O)CN2CCN(CC(=O)O)CCN(CC(=O)O)CCN(CC(=O)O)CC2)C(N)=O)[C@@H](C)O)NC(=O)[C@H](Cc2ccc(O)cc2)NC(=O)[C@H](C(C)C)NC(=O)[C@H](CC(=O)O)NC(=O)[C@H](Cc2ccncc2)NC(=O)[C@H](CCCCN)NC(=O)CNC(=O)[C@H](C(C)C)NC1=O [compound 155, Ac-hLeu-Y-C-V-G-K-4PyA-D-V-Y-C-W-F-Thr-dLys(DOTA)-CONH2] (Ac-[hLeu]YCVGK[4Pal]DVYCWFT[dK](DOTA)-NH2; disulfide 3-11)
10 to 100 | CC(=O)N[C@@H](CCC(C)C)C(=O)N[C@@H](Cc1ccc(O)cc1)C(=O)N[C@H]1CSSC[C@@H](C(=O)N[C@@H](Cc2c[nH]c3ncccc23)C(=O)N[C@@H](Cc2ccccc2)C(=O)N[C@H](C(=O)N[C@H](CCCCNC(=O)CN2CCN(CC(=O)O)CCN(CC(=O)O)CCN(CC(=O)O)CC2)C(N)=O)[C@@H](C)O)NC(=O)[C@H](Cc2ccc(O)cc2)NC(=O)[C@H](C(C)C)NC(=O)[C@H](CC(=O)O)NC(=O)[C@H](Cc2ccc(O)cc2)NC(=O)[C@H](CCCCN)NC(=O)CNC(=O)[C@H](C(C)C)NC1=O [compound 156, Ac-hLeu-Y-C-V-G-K-Y-D-V-Y-C-7NW-F-Thr-dLys(DOTA)-CONH2] (Ac-[hLeu]YCVGKYDVYC[Trp(7-aza)]FT[dK](DOTA)-NH2; disulfide 3-11)
10 to 100 | CC(=O)N[C@@H](CCC(C)C)C(=O)N[C@@H](Cc1ccc(O)cc1)C(=O)N[C@H]1CSSC[C@@H](C(=O)N[C@@H](Cc2ccc3ccccc3c2)C(=O)N[C@@H](Cc2ccccc2)C(=O)N[C@H](C(=O)N[C@H](CCCCNC(=O)CN2CCN(CC(=O)O)CCN(CC(=O)O)CCN(CC(=O)O)CC2)C(=O)O)[C@@H](C)O)NC(=O)[C@H](Cc2ccc(O)cc2)NC(=O)[C@H](C(C)C)NC(=O)[C@H](CC(=O)O)NC(=O)[C@H](Cc2ccc(O)cc2)NC(=O)[C@H](CCCCN)NC(=O)CNC(=O)[C@H](C(C)C)NC1=O [compound 159, Ac-hLeu-Y-C-V-G-K-Y-D-V-Y-C-2Nal-F-Thr-dLys(DOTA)-CONH2] (Ac-[hLeu]YCVGKYDVYC[2Nal]FT[dK](DOTA)-OH; disulfide 3-11)
1 to 10 | CC(=O)N[C@@H](CCC(C)C)C(=O)N[C@@H](Cc1ccc(O)cc1)C(=O)N[C@H]1CSSC[C@@H](C(=O)N[C@@H](Cc2c[nH]c3ccc(F)cc23)C(=O)N[C@@H](Cc2ccccc2)C(=O)N2C[C@H](O)C[C@H]2C(=O)N[C@H](CCCCNC(=O)CN2CCN(CC(=O)O)CCN(CC(=O)O)CCN(CC(=O)O)CC2)C(N)=O)NC(=O)[C@H](Cc2ccc(O)cc2)NC(=O)[C@H](C(C)C)NC(=O)[C@H](CC(=O)O)NC(=O)[C@H](Cc2ccc(O)cc2)NC(=O)[C@H](CCCCN)NC(=O)CNC(=O)[C@H](C(C)C)NC1=O [compound 161, Ac-hLeu-Y-C-V-G-K-Y-D-V-Y-C-5FW-F-4OHPro-dLys(DOTA)-CONH2] (Ac-[hLeu]YCVGKYDVYC[Trp(5-F)]F[Hyp][dK](DOTA)-NH2; disulfide 3-11)
10 to 100 | CC(=O)N[C@@H](CCC(C)C)C(=O)N[C@@H](Cc1ccc(O)cc1)C(=O)N[C@H]1CSSC[C@@H](C(=O)N[C@@H](Cc2c[nH]c3ccc(F)cc23)C(=O)N[C@@H](Cc2ccccc2)C(=O)N[C@@H](C(=O)N[C@H](CCCCNC(=O)CN2CCN(CC(=O)O)CCN(CC(=O)O)CCN(CC(=O)O)CC2)C(N)=O)[C@H](C)O)NC(=O)[C@H](Cc2ccc(O)cc2)NC(=O)[C@H](C(C)C)NC(=O)[C@H](CC(=O)O)NC(=O)[C@H](Cc2ccc(O)cc2)NC(=O)[C@H](CCCCN)NC(=O)CNC(=O)[C@H](C(C)C)NC1=O [compound 163, Ac-hLeu-Y-C-V-G-K-Y-D-V-Y-C-5FW-F-dThr-dLys(DOTA)-CONH2] (Ac-[hLeu]YCVGKYDVYC[Trp(5-F)]F[dT][dK](DOTA)-NH2; disulfide 3-11)
< 1 | CC(=O)N[C@@H](CCC(C)C)C(=O)N[C@@H](Cc1ccc(O)cc1)C(=O)N[C@H]1CSSC[C@@H](C(=O)N[C@@H](Cc2c[nH]c3ccc(F)cc23)C(=O)N[C@@H](Cc2ccccc2F)C(=O)N[C@H](C(=O)N[C@H](CCCCNC(=O)CN2CCN(CC(=O)O)CCN(CC(=O)O)CCN(CC(=O)O)CC2)C(N)=O)[C@@H](C)O)NC(=O)[C@H](Cc2ccc(O)cc2)NC(=O)[C@H](C(C)C)NC(=O)[C@H](CC(=O)O)NC(=O)[C@H](Cc2ccc(O)cc2)NC(=O)[C@H](CCCCN)NC(=O)CNC(=O)[C@H](C(C)C)NC1=O [compound 164, Ac-hLeu-Y-C-V-G-K-Y-D-V-Y-C-5FW-2FPhe-Thr-dLys(DOTA)-CONH2] (Ac-[hLeu]YCVGKYDVYC[Trp(5-F)][Phe(2-F)]T[dK](DOTA)-NH2; disulfide 3-11)
1 to 10 | CC(=O)N[C@@H](CCC(C)C)C(=O)N[C@@H](Cc1ccc(O)cc1)C(=O)N[C@H]1CSSC[C@@H](C(=O)N[C@@H](Cc2c[nH]c3ccc(F)cc23)C(=O)N[C@@H](Cc2ccccc2C)C(=O)N[C@H](C(=O)N[C@H](CCCCNC(=O)CN2CCN(CC(=O)O)CCN(CC(=O)O)CCN(CC(=O)O)CC2)C(N)=O)[C@@H](C)O)NC(=O)[C@H](Cc2ccc(O)cc2)NC(=O)[C@H](C(C)C)NC(=O)[C@H](CC(=O)O)NC(=O)[C@H](Cc2ccc(O)cc2)NC(=O)[C@H](CCCCN)NC(=O)CNC(=O)[C@H](C(C)C)NC1=O [compound 165, Ac-hLeu-Y-C-V-G-K-Y-D-V-Y-C-5FW-2MePhe-Thr-dLys(DOTA)-CONH2] (Ac-[hLeu]YCVGKYDVYC[Trp(5-F)][Phe(2-Me)]T[dK](DOTA)-NH2; disulfide 3-11)
10 to 100 | CC(=O)N[C@@H](CCC(C)C)C(=O)N[C@@H](Cc1ccc(O)cc1)C(=O)N[C@H]1CSSC[C@@H](C(=O)N[C@@H](Cc2c[nH]c3ccc(F)cc23)C(=O)N[C@@H](Cc2ccc(C(=O)O)cc2)C(=O)N[C@H](C(=O)N[C@H](CCCCNC(=O)CN2CCN(CC(=O)O)CCN(CC(=O)O)CCN(CC(=O)O)CC2)C(N)=O)[C@@H](C)O)NC(=O)[C@H](Cc2ccc(O)cc2)NC(=O)[C@H](C(C)C)NC(=O)[C@H](CC(=O)O)NC(=O)[C@H](Cc2ccc(O)cc2)NC(=O)[C@H](CCCCN)NC(=O)CNC(=O)[C@H](C(C)C)NC1=O [compound 166, Ac-hLeu-Y-C-V-G-K-Y-D-V-Y-C-5FW-4COOHPhe-Thr-dLys(DOTA)-CONH2] (Ac-[hLeu]YCVGKYDVYC[Trp(5-F)][Phe(4-COOH)]T[dK](DOTA)-NH2; disulfide 3-11)
